Values after ≈ are worked out from the molar mass of the structure shown.
Key:
[1] = biological target: Poly [ADP-ribose] polymerase 1 (Homo sapiens, UniProt P09874); assay: Inhibition of recombinant human full-length Myc/His-tagged Parp-1 expressed in baculovirus infected Sf21 insect cells assessed as reduction in auto-PARsylation using activated DNA as substrate incubated for 150 mins in presence of NAD and bio-NAD as co-substrate by TR-FRET assay
[2] = biological target: T1, Poly [ADP-ribose] polymerase tankyrase-1 (Homo sapiens, UniProt O95271); parameters: species or system Sf9
T1 sequence (O95271 whole entry): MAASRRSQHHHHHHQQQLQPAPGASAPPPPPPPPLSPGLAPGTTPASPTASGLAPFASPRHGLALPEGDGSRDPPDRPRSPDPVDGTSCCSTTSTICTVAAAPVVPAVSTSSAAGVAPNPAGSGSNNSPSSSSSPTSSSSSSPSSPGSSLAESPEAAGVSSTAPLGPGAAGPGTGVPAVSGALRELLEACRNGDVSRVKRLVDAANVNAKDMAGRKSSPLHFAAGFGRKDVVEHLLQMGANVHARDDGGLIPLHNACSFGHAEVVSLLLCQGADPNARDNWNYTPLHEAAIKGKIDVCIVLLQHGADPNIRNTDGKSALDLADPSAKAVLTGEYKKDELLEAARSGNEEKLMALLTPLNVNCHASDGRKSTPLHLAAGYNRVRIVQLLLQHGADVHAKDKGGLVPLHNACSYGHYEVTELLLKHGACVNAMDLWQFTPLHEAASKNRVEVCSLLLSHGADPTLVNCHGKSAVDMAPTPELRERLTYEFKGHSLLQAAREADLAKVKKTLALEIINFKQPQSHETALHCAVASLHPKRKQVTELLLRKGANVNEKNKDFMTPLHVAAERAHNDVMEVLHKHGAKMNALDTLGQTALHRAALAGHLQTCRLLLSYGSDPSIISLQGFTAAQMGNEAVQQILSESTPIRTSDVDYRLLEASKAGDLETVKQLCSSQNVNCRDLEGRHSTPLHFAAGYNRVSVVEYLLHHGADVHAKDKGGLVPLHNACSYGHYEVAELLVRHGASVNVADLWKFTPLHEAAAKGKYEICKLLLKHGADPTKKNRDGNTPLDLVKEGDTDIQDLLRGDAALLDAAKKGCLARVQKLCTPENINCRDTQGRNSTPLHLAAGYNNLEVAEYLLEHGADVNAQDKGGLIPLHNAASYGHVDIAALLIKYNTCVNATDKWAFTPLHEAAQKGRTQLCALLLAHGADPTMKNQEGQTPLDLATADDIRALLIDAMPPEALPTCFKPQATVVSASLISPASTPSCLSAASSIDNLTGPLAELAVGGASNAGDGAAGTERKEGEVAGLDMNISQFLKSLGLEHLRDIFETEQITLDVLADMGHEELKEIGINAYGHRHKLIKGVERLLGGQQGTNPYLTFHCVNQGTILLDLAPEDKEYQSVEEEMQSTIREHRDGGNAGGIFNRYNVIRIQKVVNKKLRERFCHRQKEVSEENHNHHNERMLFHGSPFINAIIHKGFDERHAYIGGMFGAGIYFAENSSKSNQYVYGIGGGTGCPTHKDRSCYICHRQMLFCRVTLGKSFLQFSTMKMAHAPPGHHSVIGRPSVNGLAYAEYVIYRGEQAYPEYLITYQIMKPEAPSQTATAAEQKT

[3] = Intrinsic clearance in human liver microsomes assessed per mg protein in presence of NADPH by UPLC analysis; format: ADME, Microsome; conditions: read-out: CLH
[4] = Intrinsic clearance in mouse liver microsomes assessed per mg protein in presence of NADPH by UPLC analysis; format: ADME, Microsome; conditions: read-out: CLH
[5] = Thermodynamic solubility in phosphate buffer at pH 7.4 at 2 mg incubated under shaking condition for 6 hrs followed by rechecking and readjusting pH to 7.4 and further incubated for 18 hrs by HPLC/UV detection method; format: physicochemical; conditions: read-out: Therm_solubility
Tankyrase 1/2 = biological target: T2, Tankyrase 1/2 (Homo sapiens, UniProt Q9H2K2+O95271)
T2 sequence (Q9H2K2 whole entry): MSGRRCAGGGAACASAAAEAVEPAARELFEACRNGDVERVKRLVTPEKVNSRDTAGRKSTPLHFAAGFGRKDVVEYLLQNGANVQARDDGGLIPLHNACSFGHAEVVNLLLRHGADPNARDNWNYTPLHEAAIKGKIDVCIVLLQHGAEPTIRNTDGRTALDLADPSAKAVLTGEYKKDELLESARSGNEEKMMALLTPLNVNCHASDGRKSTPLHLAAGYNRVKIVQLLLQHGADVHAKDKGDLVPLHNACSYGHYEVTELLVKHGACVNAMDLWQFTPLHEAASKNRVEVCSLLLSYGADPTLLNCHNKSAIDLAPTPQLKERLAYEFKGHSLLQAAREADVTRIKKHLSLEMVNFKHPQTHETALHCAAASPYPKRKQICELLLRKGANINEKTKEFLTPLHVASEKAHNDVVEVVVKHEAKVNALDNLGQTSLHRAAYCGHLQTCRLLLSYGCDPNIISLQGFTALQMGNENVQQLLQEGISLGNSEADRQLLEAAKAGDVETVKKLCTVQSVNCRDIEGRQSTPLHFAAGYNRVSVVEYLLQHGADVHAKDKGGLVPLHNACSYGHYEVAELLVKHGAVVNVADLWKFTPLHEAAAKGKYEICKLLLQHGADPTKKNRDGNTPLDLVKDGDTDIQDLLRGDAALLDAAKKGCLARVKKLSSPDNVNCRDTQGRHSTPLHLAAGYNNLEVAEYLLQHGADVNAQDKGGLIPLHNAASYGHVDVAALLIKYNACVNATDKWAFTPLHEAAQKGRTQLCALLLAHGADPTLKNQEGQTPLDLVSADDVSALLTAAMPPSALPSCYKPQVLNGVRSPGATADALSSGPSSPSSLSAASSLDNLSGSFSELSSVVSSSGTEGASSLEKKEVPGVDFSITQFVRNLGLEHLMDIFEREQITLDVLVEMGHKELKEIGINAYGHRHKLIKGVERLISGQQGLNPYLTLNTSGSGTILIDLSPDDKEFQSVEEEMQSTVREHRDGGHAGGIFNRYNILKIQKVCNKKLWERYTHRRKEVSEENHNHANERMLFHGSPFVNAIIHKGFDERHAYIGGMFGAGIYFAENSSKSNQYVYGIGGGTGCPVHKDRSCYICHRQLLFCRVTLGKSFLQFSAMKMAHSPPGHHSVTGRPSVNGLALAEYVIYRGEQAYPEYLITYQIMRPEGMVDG
T2 sequence (O95271 whole entry): T1 sequence (O95271 whole entry)
Description: Inhibition of tankyrase 1/2 in human DLD1 cells assessed as increase in axin2 accumulation incubated for 24 hrs by luminex based bead assay

[6] = biological target: T3, Poly [ADP-ribose] polymerase tankyrase-2 (Homo sapiens, UniProt Q9H2K2); assay: biochemical
T3 sequence (Q9H2K2 whole entry): T2 sequence (Q9H2K2 whole entry)
Description: Inhibition of GST tagged-TEV cleavage site-fused human recombinant TNKS2 (873 to 1166 residues) expressed in baculovirus infected sf9 cells assessed as reduction in auto-PARsylation incubated for 60 mins in presence of bio-NAD as co-substrate by ELISA

Chain of Poly [ADP-ribose] polymerase 1 (P09874 whole entry): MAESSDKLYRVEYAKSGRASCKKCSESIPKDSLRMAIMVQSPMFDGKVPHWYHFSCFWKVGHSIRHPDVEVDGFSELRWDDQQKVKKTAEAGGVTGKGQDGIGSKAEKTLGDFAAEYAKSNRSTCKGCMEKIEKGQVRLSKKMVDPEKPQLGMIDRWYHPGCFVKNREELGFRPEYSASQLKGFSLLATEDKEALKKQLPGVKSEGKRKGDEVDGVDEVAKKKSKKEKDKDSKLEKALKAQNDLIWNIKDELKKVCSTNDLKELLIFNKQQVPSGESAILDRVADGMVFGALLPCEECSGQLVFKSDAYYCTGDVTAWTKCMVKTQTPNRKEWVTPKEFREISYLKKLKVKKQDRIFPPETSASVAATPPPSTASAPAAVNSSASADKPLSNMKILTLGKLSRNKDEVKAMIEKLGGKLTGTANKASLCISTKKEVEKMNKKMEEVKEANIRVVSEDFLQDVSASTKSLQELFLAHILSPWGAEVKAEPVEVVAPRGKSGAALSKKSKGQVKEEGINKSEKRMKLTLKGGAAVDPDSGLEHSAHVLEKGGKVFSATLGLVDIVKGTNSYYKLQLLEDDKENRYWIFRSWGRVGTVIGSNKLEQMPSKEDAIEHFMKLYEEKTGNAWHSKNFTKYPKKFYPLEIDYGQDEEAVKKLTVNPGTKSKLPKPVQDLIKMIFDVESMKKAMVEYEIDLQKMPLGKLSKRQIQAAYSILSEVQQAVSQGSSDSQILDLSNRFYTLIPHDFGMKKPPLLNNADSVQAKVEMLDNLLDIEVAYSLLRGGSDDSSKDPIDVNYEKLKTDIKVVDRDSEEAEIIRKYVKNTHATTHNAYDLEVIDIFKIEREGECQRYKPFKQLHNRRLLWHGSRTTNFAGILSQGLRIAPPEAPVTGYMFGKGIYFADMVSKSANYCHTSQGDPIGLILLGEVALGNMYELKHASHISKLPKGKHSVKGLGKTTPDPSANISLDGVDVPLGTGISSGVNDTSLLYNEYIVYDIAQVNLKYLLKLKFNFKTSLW

CC(C)(C)c1ccc(-c2nc3ccc(F)cc3c(=O)[nH]2)cc1
IC50 [1]: 3900 nM | IC50 [2]: 3.3 nM | microsomal CLint [3]: 70 µL/min/mg | microsomal CLint [4]: > 1000 µL/min/mg | solubility thermodynamic at 24 h [5]: < 1 µg/mL

CC(C)(O)c1ccc(-c2nc3c(F)ccc(F)c3c(=O)[nH]2)cc1
IC50 [1]: 1300 nM | IC50 [2]: 26 nM | microsomal CLint [3]: < 10 µL/min/mg | microsomal CLint [4]: < 10 µL/min/mg | solubility thermodynamic at 24 h [5]: 5 µg/mL (≈ 15.8 µM)

Cc1cc(F)cc2c(=O)[nH]c(-c3ccc(N4CCN(C)CC4)cc3)nc12
IC50 [1]: 120 nM | IC50 [2]: 1.5 nM | microsomal CLint [3]: 14 µL/min/mg | microsomal CLint [4]: 138 µL/min/mg | solubility thermodynamic at 24 h [5]: 4 µg/mL (≈ 11.4 µM)

Cc1cc(F)cc2c(=O)[nH]c(-c3ccc(C(C)(C)OCCO)cc3)nc12
IC50 [1]: 790 nM | IC50 [2]: 1.6 nM | microsomal CLint [3]: 37 µL/min/mg | microsomal CLint [4]: 180 µL/min/mg

CC(C)(O)c1ccc(-c2nc3ccc(Cl)cc3c(=O)[nH]2)cc1
IC50 [1]: 1400 nM | IC50 [2]: 23 nM

CC(C)(O)c1ccc(-c2nc3c(F)cccc3c(=O)[nH]2)cc1
IC50 [1]: 1100 nM | IC50 [2]: 14 nM | microsomal CLint [3]: < 10 µL/min/mg | microsomal CLint [4]: 26 µL/min/mg | solubility thermodynamic at 24 h [5]: 15 µg/mL (≈ 50.3 µM)

CC(C)(O)c1ccc(-c2nc3ccc(F)cc3c(=O)[nH]2)nc1
IC50 [1]: 2500 nM | IC50 [2]: 1000 nM | microsomal CLint [3]: 15 µL/min/mg | microsomal CLint [4]: < 10 µL/min/mg

COc1ccc(-c2nc3ccccc3c(=O)[nH]2)cc1
microsomal CLint [3]: 217 µL/min/mg | microsomal CLint [4]: 630 µL/min/mg | solubility thermodynamic at 24 h [5]: 4 µg/mL (≈ 15.9 µM)

CC(C)(OCCO)c1ccc(-c2nc3ccc(F)cc3c(=O)[nH]2)cc1
IC50 [1]: 2300 nM | IC50 [2]: 10 nM | microsomal CLint [3]: < 10 µL/min/mg | microsomal CLint [4]: 32 µL/min/mg | solubility thermodynamic at 24 h [5]: 23 µg/mL (≈ 67.2 µM)

Cl.O=c1[nH]c(-c2ccc(C3CCNCC3)cc2)nc2c(F)cc(F)cc12
IC50 [2]: 15 nM | microsomal CLint [3]: < 10 µL/min/mg | microsomal CLint [4]: < 10 µL/min/mg | solubility thermodynamic at 24 h [5]: 57 µg/mL

CC(C)(O)c1ccc(-c2nc3ccccc3c(=O)[nH]2)cc1
IC50 [1]: 910 nM | EC50 (Tankyrase 1/2): 1300 nM | IC50 [2]: 15 nM | microsomal CLint [3]: 15 µL/min/mg | microsomal CLint [4]: 46 µL/min/mg | IC50 [6]: 13 nM | solubility thermodynamic at 24 h [5]: 38 µg/mL (≈ 136 µM)

CC(C)(O)c1ccc(-c2nc3cccc(F)c3c(=O)[nH]2)cc1
IC50 [1]: 830 nM | IC50 [2]: 17 nM | microsomal CLint [3]: < 10 µL/min/mg | microsomal CLint [4]: 11 µL/min/mg | solubility thermodynamic at 24 h [5]: 20 µg/mL (≈ 67 µM)

Cc1cc(F)cc2c(=O)[nH]c(-c3ccc(C4CCN(C)CC4)cc3)nc12
IC50 [1]: 620 nM | EC50 (Tankyrase 1/2): 50 nM | IC50 [2]: 2.2 nM | microsomal CLint [3]: < 10 µL/min/mg | microsomal CLint [4]: 422 µL/min/mg | IC50 [6]: 2.2 nM | solubility thermodynamic at 24 h [5]: 5 µg/mL (≈ 14.2 µM)

COCCOC(C)(C)c1ccc(-c2nc3ccc(F)cc3c(=O)[nH]2)cc1
IC50 [1]: 5700 nM | IC50 [2]: 24 nM | microsomal CLint [3]: 41 µL/min/mg | microsomal CLint [4]: 126 µL/min/mg | solubility thermodynamic at 24 h [5]: 6 µg/mL (≈ 16.8 µM)

Cc1cc(F)cc2c(=O)[nH]c(-c3ccc(C(C)(C)O)cc3)nc12
IC50 [1]: 60 nM | IC50 [2]: 0.8 nM | microsomal CLint [3]: < 10 µL/min/mg | microsomal CLint [4]: 180 µL/min/mg | solubility thermodynamic at 24 h [5]: 1 µg/mL (≈ 3.2 µM)

CC(C)(O)c1ccc(-c2nc3cccc(Cl)c3c(=O)[nH]2)cc1
IC50 [1]: 4300 nM | IC50 [2]: 35 nM

Cc1cccc2c(=O)[nH]c(-c3ccc(C(C)(C)O)cc3)nc12
IC50 [1]: 79 nM | IC50 [2]: 1.2 nM | microsomal CLint [3]: < 10 µL/min/mg | microsomal CLint [4]: 81 µL/min/mg | solubility thermodynamic at 24 h [5]: 4 µg/mL (≈ 13.6 µM)

CC(C)(O)c1ccc(-c2nc3ccc(F)cc3c(=O)[nH]2)cc1
IC50 [1]: 349 nM | IC50 [2]: 12.5 nM | microsomal CLint [3]: < 10 µL/min/mg | microsomal CLint [4]: 25 µL/min/mg | solubility thermodynamic at 24 h [5]: 29 µg/mL (≈ 97.2 µM)

COc1cccc2c(=O)[nH]c(-c3ccc(C(C)(C)O)cc3)nc12
IC50 [1]: 630 nM | IC50 [2]: 35 nM | microsomal CLint [3]: 12 µL/min/mg | microsomal CLint [4]: 45 µL/min/mg | solubility thermodynamic at 24 h [5]: 153 µg/mL (≈ 493 µM)

CC(C)(O)c1ccc(-c2nc3c(Cl)cccc3c(=O)[nH]2)cc1
IC50 [1]: 410 nM | IC50 [2]: 11 nM | microsomal CLint [3]: 23 µL/min/mg | microsomal CLint [4]: 49 µL/min/mg

CN1CCN(c2ccc(-c3nc4ccc(F)cc4c(=O)[nH]3)cc2)CC1
IC50 [1]: 370 nM | IC50 [2]: 12 nM | microsomal CLint [3]: < 10 µL/min/mg | microsomal CLint [4]: 44 µL/min/mg | solubility thermodynamic at 24 h [5]: 6 µg/mL (≈ 17.7 µM)

CC(C)(O)c1ccc(-c2nc3ccc(F)c(F)c3c(=O)[nH]2)cc1
IC50 [1]: 512 nM | IC50 [2]: 7 nM | microsomal CLint [3]: < 10 µL/min/mg | microsomal CLint [4]: 23 µL/min/mg | solubility thermodynamic at 24 h [5]: 25 µg/mL (≈ 79 µM)
